Experimental data published in US5892063A (Hauser, Inc., priority 1997, dated 1999).
Where two headings read alike, the source gives them in different places.

How the values were obtained:
MDA-N = assay: SRB growth screen, breast cancer MDA-N; conditions: Homo sapiens, 48 h; for GI50: read-out: Log10 GI50 (converted)
UACC-257 = assay: SRB growth screen, melanoma UACC-257; conditions: Homo sapiens, UACC-257, 48 h; for CC50: read-out: Log10 LC50 (converted); for IC (TGI): read-out: Log10 TGI
TK-10 = assay: SRB growth screen, renal cancer TK-10; conditions: Homo sapiens, TK-10, 48 h; for CC50: read-out: Log10 LC50 (converted); for IC (TGI): read-out: Log10 TGI
A498 = assay: SRB growth screen, renal cancer A498; conditions: Homo sapiens, A498, 48 h; for CC50: read-out: Log10 LC50 (converted)
MOLT-4 = assay: SRB growth screen, leukemia MOLT-4; conditions: Homo sapiens, MOLT-4, 48 h; for CC50: read-out: Log10 LC50 (converted); for IC (TGI): read-out: Log10 TGI
PC-3 = assay: SRB growth screen, prostate cancer PC-3; conditions: Homo sapiens, PC-3, 48 h; for CC50: read-out: Log10 LC50 (converted); for IC (TGI): read-out: Log10 TGI
UACC-62 = assay: SRB growth screen, melanoma UACC-62; conditions: Homo sapiens, UACC-62, 48 h; for CC50: read-out: Log10 LC50 (converted)
RXF-393 = assay: SRB growth screen, renal cancer RXF-393; conditions: Homo sapiens, RXF 393, 48 h; for CC50: read-out: Log10 LC50 (converted); for IC (TGI): read-out: Log10 TGI
SN12C = assay: SRB growth screen, renal cancer SN12C; conditions: Homo sapiens, 48 h; for CC50: read-out: Log10 LC50 (converted); for IC (TGI): read-out: Log10 TGI
IGROV1 = assay: SRB growth screen, ovarian cancer IGROV1; conditions: Homo sapiens, IGROV-1, 48 h; for CC50: read-out: Log10 LC50 (converted)
SK-MEL-2 = assay: SRB growth screen, melanoma SK-MEL-2; conditions: Homo sapiens, SK-MEL-2, 48 h; for CC50: read-out: Log10 LC50 (converted)
HCC-2998 = assay: SRB growth screen, colon cancer HCC-2998; conditions: Homo sapiens, HCC 2998, 48 h; for CC50: read-out: Log10 LC50 (converted); for IC (TGI): read-out: Log10 TGI
OVCAR-5 = assay: SRB growth screen, ovarian cancer OVCAR-5; conditions: Homo sapiens, OVCAR-5, 48 h; for CC50: read-out: Log10 LC50 (converted); for IC (TGI): read-out: Log10 TGI
MALME-3M = assay: SRB growth screen, melanoma MALME-3M; conditions: Homo sapiens, 48 h; for CC50: read-out: Log10 LC50 (converted); for IC (TGI): read-out: Log10 TGI
M14 = assay: SRB growth screen, melanoma M14; conditions: Homo sapiens, M14, 48 h; for CC50: read-out: Log10 LC50 (converted)
MCF7/ADR-RES = assay: SRB growth screen, breast cancer MCF7/ADR-RES; conditions: Homo sapiens, 48 h; for CC50: read-out: Log10 LC50 (converted); for IC (TGI): read-out: Log10 TGI
T-47D = assay: SRB growth screen, breast cancer T-47D; conditions: Homo sapiens, T47D, 48 h; for GI50: read-out: Log10 GI50 (converted); for CC50: read-out: Log10 LC50 (converted)
RPMI-8226 = assay: SRB growth screen, leukemia RPMI-8226; conditions: Homo sapiens, RPMI-8226, 48 h; for CC50: read-out: Log10 LC50 (converted)
HCT-116 = assay: SRB growth screen, colon cancer HCT-116; conditions: Homo sapiens, HCT-116, 48 h; for GI50: read-out: Log10 GI50 (converted); for CC50: read-out: Log10 LC50 (converted)
SR = assay: SRB growth screen, leukemia SR; conditions: Homo sapiens, 48 h; for CC50: read-out: Log10 LC50 (converted)
MCF7 = assay: SRB growth screen, breast cancer MCF7; conditions: Homo sapiens, MCF7, 48 h; for CC50: read-out: Log10 LC50 (converted)
OVCAR-8 = assay: SRB growth screen, ovarian cancer OVCAR-8; conditions: Homo sapiens, OVCAR-8, 48 h; for CC50: read-out: Log10 LC50 (converted)
KM12 = assay: SRB growth screen, colon cancer KM12; conditions: Homo sapiens, KM12, 48 h
HT29 = assay: SRB growth screen, colon cancer HT29; conditions: Homo sapiens, HT-29, 48 h; for GI50: read-out: Log10 GI50 (converted); for CC50: read-out: Log10 LC50 (converted)
MDA-MB-435 = assay: SRB growth screen, breast cancer MDA-MB-435; format: cell-based
tumor models = conditions: cited from earlier work
[1] = read-out: Log10 LC50 (converted)
[2] = read-out: Log10 GI50 (converted)

SMILES: CC(=O)O[C@H]1C(=O)[C@@]2(C)[C@H]([C@H](OC(=O)c3ccccc3)[C@]3(O)C[C@H](OC(=O)[C@H](O)[C@@H](NC(=O)C4(C)OC4C)c4ccccc4)C(C)=C1C3(C)C)[C@]1(OC(C)=O)CO[C@@H]1C[C@@H]2O (some centres unmarked) [Ceph-epoxide, cephalomannine epoxide]
- GI50 (MDA-N): < 10 nM
- CC50 (MDA-N; [1]): < 0.01 µM
- IC (TGI) (MDA-N; read-out: Log10 TGI): < 0.01 µM
- GI50 (UACC-257; [2]): 0.0209 µM
- CC50 (UACC-257): > 100 µM
- IC (TGI) (UACC-257): > 100 µM
- GI50 (TK-10; [2]): 0.0646 µM
- CC50 (TK-10): > 100 µM
- IC (TGI) (TK-10): > 100 µM
- GI50 (A498; [2]): 0.316 µM
- CC50 (A498): > 100 µM
- IC (TGI) (A498; read-out: Log10 TGI): > 100 µM
- GI50 (MOLT-4; [2]): < 0.01 µM
- CC50 (MOLT-4): > 100 µM
- IC (TGI) (MOLT-4): > 100 µM
- GI50 (PC-3; [2]): 0.0112 µM
- CC50 (PC-3): > 100 µM
- IC (TGI) (PC-3): > 100 µM
- GI50 (UACC-62; [2]): < 0.01 µM
- CC50 (UACC-62): > 100 µM
- IC (TGI) (UACC-62; read-out: Log10 TGI): > 100 µM
- GI50 (RXF-393; [2]): 0.214 µM
- CC50 (RXF-393): > 100 µM
- IC (TGI) (RXF-393): > 100 µM
- GI50 (SN12C; [2]): < 0.01 µM
- CC50 (SN12C): > 100 µM
- IC (TGI) (SN12C): > 100 µM
- GI50 (IGROV1; [2]): < 0.01 µM
- CC50 (IGROV1): > 100 µM
- GI50 (SK-MEL-2; [2]): < 0.01 µM
- CC50 (SK-MEL-2): > 100 µM
- GI50 (HCC-2998; [2]): < 0.01 µM
- CC50 (HCC-2998): > 100 µM
- IC (TGI) (HCC-2998): 0.0457 µM
- GI50 (OVCAR-5; [2]): 0.0275 µM
- CC50 (OVCAR-5): > 100 µM
- IC (TGI) (OVCAR-5): 4.79 µM
- CC50 (MALME-3M): > 100 µM
- IC (TGI) (MALME-3M): > 100 µM
- GI50 (M14; [2]): < 0.01 µM
- CC50 (M14): > 100 µM
- GI50 (MCF7/ADR-RES; [2]): 13.8 µM
- CC50 (MCF7/ADR-RES): > 100 µM
- IC (TGI) (MCF7/ADR-RES): 61.7 µM
- GI50 (T-47D): 15.5 µM
- CC50 (T-47D): > 100 µM
- IC (TGI) (T-47D; read-out: Log10 TGI): > 100 µM
- CC50 (RPMI-8226): > 100 µM
- GI50 (HCT-116): < 10 nM
- CC50 (HCT-116): > 100 µM
- GI50 (SR; [2]): < 0.01 µM
- CC50 (SR): > 100 µM
- GI50 (MCF7; [2]): < 0.01 µM
- CC50 (MCF7): > 100 µM
- IC (TGI) (MCF7; read-out: Log10 TGI): > 100 µM
- CC50 (OVCAR-8): > 100 µM
- IC (TGI) (OVCAR-8; read-out: Log10 TGI): > 100 µM
- GI50 (KM12; [2]): < 0.01 µM
- GI50 (HT29): < 10 nM
- CC50 (HT29): > 100 µM
- IC (TGI) (HT29; read-out: Log10 TGI): 0.115 µM
- GI50 (MDA-MB-435; Homo sapiens, MDA-MB-435, 48 h; read-out: Log10 GI50 (converted)): < 10 nM
- IC (TGI) (MDA-MB-435; Homo sapiens, MDA-MB-435, 48 h; read-out: Log10 TGI): < 0.01 µM

SMILES: CC(=O)O[C@H]1C(=O)[C@@]2(C)[C@H]([C@H](OC(=O)c3ccccc3)[C@]3(O)C[C@H](OC(=O)[C@H](O)[C@@H](NC(=O)c4ccccc4)c4ccccc4)C(C)=C1C3(C)C)[C@]1(OC(C)=O)CO[C@@H]1C[C@@H]2O [Paclitaxel, paclitaxel, reference compound]
- GI50 (MDA-N): < 0.0001 nM
- CC50 (UACC-257): 93.3 µM
- IC (TGI) (UACC-257): 30.2 µM
- CC50 (TK-10): > 100 µM
- IC (TGI) (TK-10): > 100 µM
- CC50 (A498): 74.1 µM
- CC50 (MOLT-4): > 100 µM
- IC (TGI) (MOLT-4): > 100 µM
- CC50 (PC-3): > 100 µM
- IC (TGI) (PC-3): > 100 µM
- CC50 (UACC-62): 64.6 µM
- CC50 (RXF-393): 35.5 µM
- IC (TGI) (RXF-393): 12.6 µM
- CC50 (SN12C): > 100 µM
- IC (TGI) (SN12C): 91.2 µM
- CC50 (IGROV1): > 100 µM
- IC (TGI) (IGROV1; read-out: Log10 TGI): 64.6 µM
- CC50 (SK-MEL-2): > 100 µM
- activity in model tumor systems (tumor models): excellent activity
- CC50 (HCC-2998): 55 µM
- IC (TGI) (HCC-2998): 17 µM
- CC50 (OVCAR-5): > 100 µM
- IC (TGI) (OVCAR-5): 12 µM
- CC50 (MALME-3M): 77.6 µM
- IC (TGI) (MALME-3M): 34.7 µM
- CC50 (M14): 74.1 µM
- IC (TGI) (M14; read-out: Log10 TGI): 24 µM
- CC50 (MCF7/ADR-RES): > 100 µM
- IC (TGI) (MCF7/ADR-RES): > 100 µM
- GI50 (T-47D): 0.000155 µM
- CC50 (T-47D): > 100 µM
- GI50 (RPMI-8226; [2]): < 0.1 pM
- CC50 (RPMI-8226): > 100 µM
- IC (TGI) (RPMI-8226; read-out: Log10 TGI): > 100 µM
- GI50 (HCT-116): < 0.0001 nM
- CC50 (HCT-116): > 100 µM
- IC (TGI) (HCT-116; read-out: Log10 TGI): 15.1 µM
- CC50 (SR): > 100 µM
- IC (TGI) (SR; read-out: Log10 TGI): > 100 µM
- CC50 (MCF7): > 100 µM
- GI50 (OVCAR-8; [2]): 0.0178 nM
- CC50 (OVCAR-8): > 100 µM
- CC50 (KM12; [1]): > 100 µM
- IC (TGI) (KM12; read-out: Log10 TGI): 43.7 µM
- GI50 (HT29): < 0.0001 nM
- CC50 (HT29): 40.7 µM
- GI50 (MDA-MB-435; Homo sapiens, MDA-MB-435, 48 h, read-out: Log10 GI50 (converted)): < 0.0001 nM
